# Measured values as given in patent US20230250172A1, “IMPLANTABLE SCAFFOLDS AND USES THEREOF FOR IMMUNOTHERAPY AND OTHER USES” (The Regents of the University of California, priority 2019, published 2023).
# Entries after “also recorded” stand apart in the source; their conditions may differ.
# How the values were obtained:
# [1] = system: formation of regulatory T cells (Treg), Foxp3 expression; assay: in vitro inhibition of Treg formation (2D); format: cell-based, mouse
# Description: (§1) For Treg formation experiments CD4+ T cells were purified from mouse spleen as mentioned above. Cells were then either activated on scaffolds or on anti-CD3e antibody (8 mg/ml) coated plates with the anti-CD28 antibody (2 mg/ml) supplemented medium. At the same time transforming growth factor-beta (TGF-beta; TGF-β) (15 ng/ml) was added to the media. After four days regulatory T cells were removed and stained with antibodies for flow cytometry analysis.
# as §1, with “μg/mL)” for “mg/ml)”, “TGF-β” for “transforming growth factor-beta (TGF-beta; TGF-β)”, “ng/mL)” for “ng/ml)”, “removed, fixed, permeabilized,” for “removed”, “cytometric analysis of Foxp3 expression.” for “cytometry analysis.”
# TGF-beta receptor (TβR) = conditions: reported IC50 value (FIG. 13B); cited from earlier work
# [2] = system: B16-F10-Ova melanoma tumors; assay: melanoma model, cell-free scaffold implanted adjacent to tumor; format: in vivo, mouse; conditions: for T cell recruitment and tumor clearance compared to control scaffolds: chemokine in full scaffold
# From the text: 2-5×10^5 (2-5×105) B16F10-OVA tumor cells were subcutaneously injected into right or both (in the contralateral tumor model) right and left flanks of C57BL/6J WT mice (6-8 weeks old). These melanoma-derived cells are transfected to express chicken ovalbumin peptide (OVA)34. Five days after tumor cell injection, scaffolds were surgically implanted subcutaneously into the same approximate region of the tumors in both flanks. For cell-loaded studies, ex vivo activated OT-I T cells were transferred either intravenously using retro-orbital injections (100 microliters [μL] per animal) or implantable scaffolds at the same day. Tumor size was assessed over time using a digital caliber until day 22 at which animals were sacrificed and the tumor, draining lymph nodes, and spleen were extracted. Tumor mass was measured using a digital balance before digesting the tumor tissue for flow cytometry or fixing it for tissue sectioning. Tumors were digested by incubating in collagenase and DNase I (50 micrograms/mL [μg/mL]) at 37° C. for 15 min. These enzymes were inactivated with ethylenediamine tetra-acetic acid (EDTA) (20 microliters/mL [μL/mL] of solution). […] Tissue sections were imaged by a fluorescence microscope (KEYENCE™ BZ-X800, Osaka, Japan).
# Typically, mice received subcutaneous injections of B16-F10 cells to their right flank followed by the scaffold implantation adjacent to the tumor once it was palpable. Without any further treatment animal's health was monitored and were euthanized 17 days afterwards. […]
# 2-5×10^5 B16F10-OVA or B16F10 tumor cells were subcutaneously injected into right or both (in the contralateral tumor model) right and left flanks of wild-type C57BL/6J WT mice (6-8 weeks old, Jackson Lab). […] Tumor size was assessed over time using a digital caliper until day 22 at which animals were sacrificed and the tumor, draining lymph nodes, and spleen were extracted.
# Tumor masses were measured using a digital balance before digesting the tumor tissue for flow cytometry or fixing it for tissue sectioning. […]
# B16F10-OVA tumor cells = assay: Transwell migration assay of tumor cells; format: cell-based, mouse; conditions: hydrogels containing CCL21; 8 h
# Description: The migration assay to evaluate the role of chemokines on recruitment of T cells and melanoma cancer in the presence and absence of magnetic particles was performed using regular Transwell migration (Majedi, F. S. et al. Cytokine Secreting Microparticles Engineer the Fate and the Effector Functions of T-Cells. Adv. Mater. 30, 1703178 (2018)). […]
# The migration assay to evaluate the role of chemokines on recruitment of T cells and melanoma cells in the presence and absence of chemokine-functionalized scaffolds was performed using regular Transwell migration as reported. […]
molecule,measurement,setting,value
"Cc1cccc(-c2nn3c(c2-c2ccnc4ccc(C(N)=O)cc24)CCC3)n1 [LY2157299, galunisertib]",Treg formation suppressed,"[1]; 2D, aAPCs, soluble TGF-β in media, soluble TGFbi 10 uM or PLGA NPs with equivalent amount",about 40%
same,potency in suppressing Treg formation,"[1]; at 1 nM concentrations, versus SB505124",about twice as potent as SB505124
Cc1cccc(-c2[nH]c(C(C)(C)C)nc2-c2ccc3c(c2)OCO3)n1 [SB505124],IC50,TGF-beta receptor (TβR),129 nM
"CXCL12: stromal cell-derived factor 1 chemokine, used in the scaffold instead of CCL21",T cell recruitment and tumor clearance compared to control scaffolds,[2],successfully recruited T cells and helped clear tumors
"CCL21: chemokine (C-C motif) ligand 21, chemoattractant mixed into the scaffold (protein) SDGGGQDCCLKYSQKKIPYSIVRGYRKQEPSLGCPIPAILFSPRKHSKPELCANPEEGWVQNLMRRLDQPPAPGKQSPGCRKNRGTSKSGKKGKGSKGCKRTEQTQPSRG",recruitment of tumor cells (chemotaxis),B16F10-OVA tumor cells,no significant effect
same,recruitment of CD8+ T cells by chemokine released from scaffold,"[2]; CCL21 versus SDF-1a (CXCL12), otherwise identical scaffolds",favors recruitment of CD8+ T cells more than SDF-1α; also recorded: favored recruitment of CD8+ T cells and disfavored CD4+ T cells as compared with CXCL12
same,T cell recruitment and tumor clearance compared to control scaffolds,[2],successfully recruited T cells and helped clear tumors
